Columns and labels:
XIAP BIR2-3 = biological target: T1, XIAP BIR2-3 (Homo sapiens, UniProt P98170, C202A/C213G); experiment: XIAP-BIR2-3 dimeric SMAC Peptide Homogeneous Time Resolved Fluorescence (HTRF) Assay; assay type: binding; conditions: 0.5 nM N-His-BIR2-3 (125-356, C202A/C213G, XIAP), 20 nM fluorescein labeled dimeric SMAC peptide; HTRF signal; read-out: XIAP BIR2-3 IC50
T1 construct: His-BIR2-3 (125-356, C202A/C213G, XIAP)
Experimental: B. […] Assays were performed in black, flat-bottom, 384-well plates. […] Compounds were dissolved at 3 mM in dimethylsulfoxide (DMSO) and evaluated at eleven serially diluted concentrations. IC50 and Ki values were derived by non-linear regression analysis.

XIAP BIR3 = biological target: T2, XIAP BIR3 (Homo sapiens, UniProt P98170); experiment: XIAP-BIR3/SMAC Homogeneous Time Resolved Fluorescence (HTRF) Assay; assay type: binding; conditions: 1 nM N-His-BIR3 (241-356, XIAP), 5 nM fluorescein labeled SMAC peptide; HTRF signal; read-out: XIAP BIR3 IC50
T2 construct: His-BIR3 (241-356, XIAP)
T2 sequence (P98170 241-356): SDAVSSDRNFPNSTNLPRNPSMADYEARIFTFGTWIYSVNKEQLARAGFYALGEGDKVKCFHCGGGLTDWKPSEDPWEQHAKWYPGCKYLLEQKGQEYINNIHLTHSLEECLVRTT
Outline: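 Competition HTRF between XIAP-BIR3 and SMAC; reaction 60 min at room temperature, then anti-6×His-terbium Fab detection for a further 30 min.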

T1 sequence (P98170 125-356 C202A/C213G): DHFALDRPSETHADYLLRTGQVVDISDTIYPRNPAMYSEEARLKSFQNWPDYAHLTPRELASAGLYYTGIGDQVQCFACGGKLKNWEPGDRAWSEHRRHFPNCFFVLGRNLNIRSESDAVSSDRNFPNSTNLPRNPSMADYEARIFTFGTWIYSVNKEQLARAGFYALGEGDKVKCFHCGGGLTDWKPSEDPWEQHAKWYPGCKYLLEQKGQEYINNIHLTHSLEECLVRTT

SMILES | IC50 (XIAP BIR2-3) | IC50 (XIAP BIR3)
CN[C@@H](C)C(=O)N[C@H](C(=O)N1Cc2cc([C@H]3C[C@@H](C(=O)N[C@@H]4CCCc5ccccc54)N(C(=O)[C@@H](NC(=O)[C@H](C)NC)C(C)(C)C)C3)ccc2C[C@H]1C(=O)N[C@@H](CO)c1ccccc1F)C(C)(C)C [Example 36, (S)-2-((S)-3,3-Dimethyl-2-((S)-2-(methylamino)propanamido)butanoyl)-7-((3R,5S)-1-((S)-3,3-dimethyl-2-((S)-2-(methylamino)propanamido)butanoyl)-5-(((R)-1,2,3,4-tetrahydronaphthalen-1-yl)carbamoyl)pyrrolidin-3-yl)-N-((R)-1-(2-fluorophenyl)-2-hydroxyethyl)-1,2,3,4-tetrahydroisoquinoline-3-carboxamide] | 1.7 nM | 3.3 nM
CN[C@@H](C)C(=O)N[C@H](C(=O)N1Cc2cc([C@H]3C[C@@H](C(=O)N[C@@H]4CCCc5ccccc54)N(C(=O)[C@@H](NC(=O)[C@H](C)NC)C(C)(C)C)C3)ccc2C[C@H]1C(=O)N[C@@H]1CCCc2cc(OC)ccc21)C(C)(C)C [Example 37, (S)-2-((S)-3,3-Dimethyl-2-((S)-2-(methylamino)propanamido)butanoyl)-7-((3R,5S)-1-((S)-3,3-dimethyl-2-((S)-2-(methylamino)propanamido)butanoyl)-5-(((R)-1,2,3,4-tetrahydronaphthalen-1-yl)carbamoyl)pyrrolidin-3-yl)-N-((R)-6-methoxy-1,2,3,4-tetrahydronaphthalen-1-yl)-1,2,3,4-tetrahydroisoquinoline-3-carboxamide] | 1.8 nM | 2.9 nM
CN[C@@H](C)C(=O)N[C@H](C(=O)N1Cc2cc([C@H]3C[C@@H](C(=O)N[C@@H]4CCCc5ccccc54)N(C(=O)[C@@H](NC(=O)[C@H](C)NC)C(C)(C)C)C3)ccc2C[C@H]1C(=O)Nc1cc(C)nn1-c1ccccc1)C(C)(C)C [Example 38, (S)-2-((S)-3,3-Dimethyl-2-((S)-2-(methylamino)propanamido)butanoyl)-7-((3R,5S)-1-((S)-3,3-dimethyl-2-((S)-2-(methylamino)propanamido)butanoyl)-5-(((R)-1,2,3,4-tetrahydronaphthalen-1-yl)carbamoyl)pyrrolidin-3-yl)-N-(3-methyl-1-phenyl-1H-pyrazol-5-yl)-1,2,3,4-tetrahydroisoquinoline-3-carboxamide] | 1.8 nM | 3.2 nM
CN[C@@H](C)C(=O)N[C@H](C(=O)N1Cc2cc([C@H]3C[C@@H](C(=O)N[C@@H]4CCCc5ccccc54)N(C(=O)[C@@H](NC(=O)[C@H](C)NC)C(C)(C)C)C3)ccc2C[C@H]1C(=O)N[C@H](COC)Cc1ccccc1)C(C)(C)C [Example 39, (S)-2-((S)-3,3-Dimethyl-2-((S)-2-(methylamino)propanamido)butanoyl)-7-((3R,5S)-1-((S)-3,3-dimethyl-2-((S)-2-(methylamino)propanamido)butanoyl)-5-(((R)-1,2,3,4-tetrahydronaphthalen-1-yl)carbamoyl)pyrrolidin-3-yl)-N-((S)-1-methoxy-3-phenylpropan-2-yl)-1,2,3,4-tetrahydroisoquinoline-3-carboxamide] | 5.6 nM | 7.2 nM
CN[C@@H](C)C(=O)N[C@H](C(=O)N1Cc2cc([C@H]3C[C@@H](C(=O)N[C@@H]4CCCc5ccccc54)N(C(=O)[C@@H](NC(=O)[C@H](C)NC)C(C)(C)C)C3)ccc2C[C@H]1C(=O)N[C@H](COCCO)Cc1ccccc1)C(C)(C)C [Example 44, (S)-2-((S)-3,3-Dimethyl-2-((S)-2-(methylamino)propanamido)butanoyl)-7-((3R,5S)-1-((S)-3,3-dimethyl-2-((S)-2-(methylamino)propanamido)butanoyl)-5-(((R)-1,2,3,4-tetrahydronaphthalen-1-yl)carbamoyl)pyrrolidin-3-yl)-N—((S)-1-(2-hydroxyethoxy)-3-phenylpropan-2-yl)-1,2,3,4-tetrahydroisoquinoline-3-carboxamide] | 17.4 nM | 10.3 nM
CN[C@@H](C)C(=O)N[C@H](C(=O)N1Cc2cc([C@H]3C[C@@H](C(=O)N[C@@H]4CCCc5ccccc54)N(C(=O)[C@@H](NC(=O)[C@H](C)NC)C(C)(C)C)C3)ccc2C[C@H]1C(=O)N[C@@H](Cc1ccccc1)c1noc(C)n1)C(C)(C)C [Example 45, (S)-2-((S)-3,3-Dimethyl-2-((S)-2-(methylamino)propanamido)butanoyl)-7-((3R,5S)-1-((S)-3,3-dimethyl-2-((S)-2-(methylamino)propanamido)butanoyl)-5-(((R)-1,2,3,4-tetrahydronaphthalen-1-yl)carbamoyl)pyrrolidin-3-yl)-N—((S)-1-(5-methyl-1,2,4-oxadiazol-3-yl)-2-phenylethyl)-1,2,3,4-tetrahydroisoquinoline-3-carboxamide] | 4.2 nM | 9.2 nM
CN[C@@H](C)C(=O)N[C@H](C(=O)N1C[C@@H](c2ccc3c(c2)CN(C(=O)[C@@H](NC(=O)[C@H](C)NC)C(C)(C)C)[C@H](C(=O)N[C@@H]2CCCc4ccccc42)C3)C[C@H]1C(=O)N[C@@H](Cc1ccccc1)C(N)=O)C(C)(C)C [Example 46, (S)-7-((3R,5S)-5-(((S)-1-Amino-1-oxo-3-phenylpropan-2-yl)carbamoyl)-1-((S)-3,3-dimethyl-2-((S)-2-(methylamino)propanamido)butanoyl)pyrrolidin-3-yl)-2-((S)-3,3-dimethyl-2-((S)-2-(methylamino)propanamido)butanoyl)-N—((R)-1,2,3,4-tetrahydronaphthalen-1-yl)-1,2,3,4-tetrahydroisoquinoline-3-carboxamide] | 1.6 nM | 10.2 nM

Stronger by IC50 (XIAP BIR2-3), values ahead:

IC50 (XIAP BIR2-3) | IC50 (XIAP BIR3) | SMILES
1.5 nM | 4.6 nM | CN[C@@H](C)C(=O)N[C@H](C(=O)N1Cc2cc([C@H]3C[C@@H](C(=O)N[C@@H]4CCCc5ccccc54)N(C(=O)[C@@H](NC(=O)[C@H](C)NC)C(C)(C)C)C3)ccc2C[C@H]1C(=O)N[C@@H](Cc1ccccc1)C(=O)O)C(C)(C)C [Example 41, (S)-2-((S)-2-((S)-3,3-Dimethyl-2-((S)-2-(methylamino)propanamido)butanoyl)-7-((3R,5S)-1-((S)-3,3-dimethyl-2-((S)-2-(methylamino)propanamido)butanoyl)-5-(((R)-1,2,3,4-tetrahydronaphthalen-1-yl)carbamoyl)pyrrolidin-3-yl)-1,2,3,4-tetrahydroisoquinoline-3-carboxamido)-3-phenylpropanoic acid]
1.3 nM | 2.5 nM | CN[C@@H](C)C(=O)N[C@H](C(=O)N1Cc2cc([C@H]3C[C@@H](C(=O)N[C@@H]4CCCc5ccccc54)N(C(=O)[C@@H](NC(=O)[C@H](C)NC)C(C)(C)C)C3)ccc2C[C@H]1C(=O)N[C@H](CO)c1ccccc1F)C(C)(C)C [Example 35, (S)-2-((S)-3,3-Dimethyl-2-((S)-2-(methylamino)propanamido)butanoyl)-7-((3R,5S)-1-((S)-3,3-dimethyl-2-((S)-2-(methylamino)propanamido)butanoyl)-5-(((R)-1,2,3,4-tetrahydronaphthalen-1-yl)carbamoyl)pyrrolidin-3-yl)-N-((S)-1-(2-fluorophenyl)-2-hydroxyethyl)-1,2,3,4-tetrahydroisoquinoline-3-carboxamide]
1.3 nM | 2 nM | CN[C@@H](C)C(=O)N[C@H](C(=O)N1Cc2cc([C@H]3C[C@@H](C(=O)N[C@@H]4CCCc5ccccc54)N(C(=O)[C@@H](NC(=O)[C@H](C)NC)C(C)(C)C)C3)ccc2C[C@H]1C(=O)N[C@@H](Cc1ccccc1)C(=O)N1CCOCC1)C(C)(C)C [Example 43, (S)-2-((S)-3,3-Dimethyl-2-((S)-2-(methylamino)propanamido)butanoyl)-7-((3R,5S)-1-((S)-3,3-dimethyl-2-((S)-2-(methylamino)propanamido)butanoyl)-5-(((R)-1,2,3,4-tetrahydronaphthalen-1-yl)carbamoyl)pyrrolidin-3-yl)-N—((S)-1-morpholino-1-oxo-3-phenylpropan-2-yl)-1,2,3,4-tetrahydroisoquinoline-3-carboxamide]
1.2 nM | 1.6 nM | CN[C@@H](C)C(=O)N[C@H](C(=O)N1Cc2cc([C@H]3C[C@@H](C(=O)N[C@@H]4CCCc5ccccc54)N(C(=O)[C@@H](NC(=O)[C@H](C)NC)C(C)(C)C)C3)ccc2C[C@H]1C(=O)N[C@@H](Cc1ccccc1)C(=O)N(C)C)C(C)(C)C [Example 42, (S)-2-((S)-3,3-Dimethyl-2-((S)-2-(methylamino)propanamido)butanoyl)-7-((3R,5S)-1-((S)-3,3-dimethyl-2-((S)-2-(methylamino)propanamido)butanoyl)-5-(((R)-1,2,3,4-tetrahydronaphthalen-1-yl)carbamoyl)pyrrolidin-3-yl)-N—((S)-1-(dimethylamino)-1-oxo-3-phenylpropan-2-yl)-1,2,3,4-tetrahydroisoquinoline-3-carboxamide]
0.9 nM | 1.5 nM | CN[C@@H](C)C(=O)N[C@H](C(=O)N1Cc2cc([C@H]3C[C@@H](C(=O)N[C@@H]4CCCc5ccccc54)N(C(=O)[C@@H](NC(=O)[C@H](C)NC)C(C)(C)C)C3)ccc2C[C@H]1C(=O)N[C@@H](Cc1ccccc1)C(=O)OC)C(C)(C)C [Example 40, (S)-Methyl 2-((S)-2-((S)-3,3-dimethyl-2-((S)-2-(methylamino)propanamido)butanoyl)-7-((3R,5S)-1-((S)-3,3-dimethyl-2-((S)-2-(methylamino)propanamido)butanoyl)-5-(((R)-1,2,3,4-tetrahydronaphthalen-1-yl)carbamoyl)pyrrolidin-3-yl)-1,2,3,4-tetrahydroisoquinoline-3-carboxamido)-3-phenylpropanoate]

From patent US8889712B2, “IAP antagonists” (Bristol-Myers Squibb Company, priority 2012, dated 2014)
